Measured values taken from patent EP4692080A1, “PREPARATION METHOD FOR SALT FORM AND CRYSTAL FORM OF 2,6-PIPERIDINEDIONE COMPOUND AND USE THEREOF” (priority 2023, dated 2024).
Structures can show the parent of a compound that is named as a salt.

Columns and labels:
IKZF1 = biological target: T1, IKZF1 (Homo sapiens, UniProt Q13422+Q96SW2); experiment: In cell western analysis of IKZF1 protein expression level in MM.1S cells; type: cell-based; details: MM1.S, read-out: Maximum Degradation Rate Dmax
T1 construct: expression levels of IKZF1 and IKZF3 proteins in MM.1S cells; host or cells: MM.1S cells
Procedure: (§1) Objective: The experiment was conducted to evaluate the degradation effects of the compound of formula (I) on IKZF1 and IKZF3 proteins in MM.1S cells by detecting their impact on the expression levels of IKZF1 and IKZF3 proteins in MM.1S cells.
(§2) • Cell line: MM.1S cell (obtained from ATCC; Cat. No. CRL-2974) • Negative control: 0.1% DMSO Table 10. Reagents and consumables
(§3) • 1) MM.1S cells in the logarithmic growth phase were seeded into a 96-well plate at 1.2×10^5 cells per well and cultured overnight. • 2) On the second day, drug treatment was initiated with a starting concentration of 300 nM, followed by a 3-fold dilution in triplicate wells, with 10 concentration gradients (containing DMSO), and incubated for 24 hours in a culture incubator. • 3) The mixture was centrifuged, and the cell supernatant was carefully removed. […]
(§4) GraphPad Prism 6 software was utilized to fit the curve with the inhibition rate data, and the DC50 value was calculated.

[1] = Pharmacokinetic evaluation in mice; type: in vivo, C57BL/6 or C57 male mice
Source text: C57BL/6 or C57 male mice were selected as the test animals for this study. The LC/MS/MS method was employed to quantitatively determine the plasma drug concentrations at various time points after intravenous injection or intragastric administration of the test compound, aiming to evaluate the pharmacokinetic characteristics of the compound of the present disclosure in mice.
C57BL/6 or C57 mice (male, 20 to 30g, 7 to 10 weeks old, Beijing Vital River).
A clear solution of the test compound was injected intravenously into the tail vein of C57BL/6 mice (fasted overnight) (vehicle: 10% DMSO/10% solutol/80% H2O), or administered intragastrically to C57 mice (fed). […] The mixture was thoroughly vortexed and mixed, and centrifuged at 6000 g for 3 minutes at 2 to 8°C. […] The mixture was thoroughly vortexed and mixed, and centrifuged at 6000 g for 3 minutes at 2 to 8°C. Plasma drug concentrations were determined by the LC-MS/MS method, and relevant pharmacokinetic parameters were calculated using Phoenix WinNonlin 8.2.0 pharmacokinetic software with non-compartmental model linear-log trapezoidal method.

[2] = Pharmacokinetic evaluation in beagle dogs; type: in vivo, Male beagle dogs; details: fed
Procedure: Male beagle dogs were selected as the experimental animals in this study.
Beagle dogs (male, 7 to 10 kg, Beijing Mars Biotechnology Co., Ltd.).
A clear solution of the test compound was slowly injected intravenously into beagle dogs (fed) via the peripheral vein (vehicle: 5% DMSO/10% Solutol/85% H2O), or administered intragastrically to beagle dogs (fed). For intravenous administration, 0.5 mL of blood was collected from the peripheral vein at 0.083, 0.25, 0.5, 1, 2, 4, 6, 8, and 24 h after administration, placed in EDTA-2K anticoagulant tubes, and centrifuged at 3200 g for 10 minutes at 2 to 8°C to separate the supernatant. For intragastric administration, 0.5 mL of blood was collected from the peripheral vein at 0.083, 0.25, 0.5, 1, 2, 4, 6, 8, and 24 h after administration, placed in EDTA-2K anticoagulant tubes, and centrifuged at 3200 g for 10 minutes at 2 to 8°C to separate the supernatant. Plasma drug concentrations were determined by the LC-MS/MS method, and relevant pharmacokinetic parameters were calculated using Phoenix WinNonlin 6.3 pharmacokinetic software with non-compartmental model linear-log trapezoidal method.

IRAK4 = biological target: T2, IRAK4 (Homo sapiens, UniProt Q9NWZ3); experiment: Target protein degradation in K562 IRAK4-HiBiT cells (Nano-Glo HiBiT assay); type: cell-based; details: K562, read-out: Maximum Degradation Rate
T2 construct: expressed in transfected cells; host or cells: K562 IRAK4-HiBiT cells
T2 sequence (Q9NWZ3 1-460): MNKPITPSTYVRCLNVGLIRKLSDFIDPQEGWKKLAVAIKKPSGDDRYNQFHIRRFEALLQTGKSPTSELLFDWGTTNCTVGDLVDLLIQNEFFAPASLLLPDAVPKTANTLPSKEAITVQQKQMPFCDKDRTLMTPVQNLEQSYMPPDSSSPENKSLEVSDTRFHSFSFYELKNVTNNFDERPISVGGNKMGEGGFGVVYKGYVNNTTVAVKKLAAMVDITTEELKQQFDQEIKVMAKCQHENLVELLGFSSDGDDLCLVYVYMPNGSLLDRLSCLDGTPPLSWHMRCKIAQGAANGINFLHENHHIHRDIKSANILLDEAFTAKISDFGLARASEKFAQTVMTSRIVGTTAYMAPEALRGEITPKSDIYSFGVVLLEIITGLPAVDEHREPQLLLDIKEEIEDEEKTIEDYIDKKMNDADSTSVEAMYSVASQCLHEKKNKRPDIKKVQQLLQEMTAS
Procedure: Objective: In this experiment, the degradation effect of the compound of formula (I) on the target protein IRAK4 in K562 IRAK4-HiBiT cells was detected.
• Cells: K562 IRAK4-HiBiT cells • Culture medium: RPMI 1640 + 10% fetal bovine serum + 2 mM glutamine + 1 mM sodium pyruvate + penicillin/streptomycin • Positive control: 1000 nM; negative control: 0.1% DMSO Table 7. Reagents and consumables […]
• (1) The cell culture medium was discarded, and the cells were washed once with DPBS, digested with trypsin, and counted to prepare a cell suspension of […]. • (2) 25 µL/well of cell suspension was added to the assay plate containing the test compound using Multidrop Combi at medium speed. • (3) The assay plate containing cells was returned to an incubator with 5% CO2 at 37°C and incubated for 16 to 18 hours.
• (1) 25 µL/well of assay reagent (NanoGlo lysis buffer + substrate + LgBit protein) was added to the assay plate using Multidrop Combi at high speed, and the plate was shaken for 10 minutes. • (2) The plate was centrifuged at 2000 rpm for 1 minute to remove air bubbles. • (3) The plate was read on Envision using US Luminescence detection method. […]

IKZF3 = biological target: T3, IKZF3 (Homo sapiens, UniProt Q96SW2+Q9UKT9); experiment: In cell western analysis of IKZF3 protein expression level in MM.1S cells; type: cell-based; details: MM1.S, read-out: Maximum Degradation Rate Dmax
T3 construct: expression levels of IKZF1 and IKZF3 proteins in MM.1S cells; host or cells: MM.1S cells
Procedure: as §1, §2, §3, §4

[3] = Intragastric Administration (10 mg/kg) (fed)
[4] = Intragastric Administration (5 mg/kg)

T3 sequence (Q9UKT9 whole entry): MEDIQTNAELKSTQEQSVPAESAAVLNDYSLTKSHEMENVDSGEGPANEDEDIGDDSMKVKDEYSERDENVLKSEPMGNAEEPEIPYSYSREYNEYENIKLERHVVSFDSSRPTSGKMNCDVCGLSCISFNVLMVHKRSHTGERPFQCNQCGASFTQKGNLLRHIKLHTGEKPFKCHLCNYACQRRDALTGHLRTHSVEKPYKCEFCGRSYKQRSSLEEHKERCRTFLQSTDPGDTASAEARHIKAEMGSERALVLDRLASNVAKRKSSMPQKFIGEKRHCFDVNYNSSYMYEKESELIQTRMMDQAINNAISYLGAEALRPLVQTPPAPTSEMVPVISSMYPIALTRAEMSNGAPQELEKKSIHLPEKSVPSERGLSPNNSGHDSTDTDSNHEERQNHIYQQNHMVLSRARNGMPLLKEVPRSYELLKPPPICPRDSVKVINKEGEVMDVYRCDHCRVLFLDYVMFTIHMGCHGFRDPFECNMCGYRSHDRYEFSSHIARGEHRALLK
T3 sequence (Q96SW2 whole entry): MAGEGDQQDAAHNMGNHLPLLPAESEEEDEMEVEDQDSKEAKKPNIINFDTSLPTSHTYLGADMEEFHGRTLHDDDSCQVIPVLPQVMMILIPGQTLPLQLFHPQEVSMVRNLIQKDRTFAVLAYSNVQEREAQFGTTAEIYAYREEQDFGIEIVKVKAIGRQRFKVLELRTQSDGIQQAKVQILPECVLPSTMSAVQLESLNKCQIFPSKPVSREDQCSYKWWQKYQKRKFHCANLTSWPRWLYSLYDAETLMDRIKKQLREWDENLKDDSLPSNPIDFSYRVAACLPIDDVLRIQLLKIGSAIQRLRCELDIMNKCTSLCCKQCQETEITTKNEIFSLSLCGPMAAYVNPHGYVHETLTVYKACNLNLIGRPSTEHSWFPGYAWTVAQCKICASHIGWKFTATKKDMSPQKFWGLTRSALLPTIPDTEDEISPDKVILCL
T3 sequence (Q16531 whole entry partner): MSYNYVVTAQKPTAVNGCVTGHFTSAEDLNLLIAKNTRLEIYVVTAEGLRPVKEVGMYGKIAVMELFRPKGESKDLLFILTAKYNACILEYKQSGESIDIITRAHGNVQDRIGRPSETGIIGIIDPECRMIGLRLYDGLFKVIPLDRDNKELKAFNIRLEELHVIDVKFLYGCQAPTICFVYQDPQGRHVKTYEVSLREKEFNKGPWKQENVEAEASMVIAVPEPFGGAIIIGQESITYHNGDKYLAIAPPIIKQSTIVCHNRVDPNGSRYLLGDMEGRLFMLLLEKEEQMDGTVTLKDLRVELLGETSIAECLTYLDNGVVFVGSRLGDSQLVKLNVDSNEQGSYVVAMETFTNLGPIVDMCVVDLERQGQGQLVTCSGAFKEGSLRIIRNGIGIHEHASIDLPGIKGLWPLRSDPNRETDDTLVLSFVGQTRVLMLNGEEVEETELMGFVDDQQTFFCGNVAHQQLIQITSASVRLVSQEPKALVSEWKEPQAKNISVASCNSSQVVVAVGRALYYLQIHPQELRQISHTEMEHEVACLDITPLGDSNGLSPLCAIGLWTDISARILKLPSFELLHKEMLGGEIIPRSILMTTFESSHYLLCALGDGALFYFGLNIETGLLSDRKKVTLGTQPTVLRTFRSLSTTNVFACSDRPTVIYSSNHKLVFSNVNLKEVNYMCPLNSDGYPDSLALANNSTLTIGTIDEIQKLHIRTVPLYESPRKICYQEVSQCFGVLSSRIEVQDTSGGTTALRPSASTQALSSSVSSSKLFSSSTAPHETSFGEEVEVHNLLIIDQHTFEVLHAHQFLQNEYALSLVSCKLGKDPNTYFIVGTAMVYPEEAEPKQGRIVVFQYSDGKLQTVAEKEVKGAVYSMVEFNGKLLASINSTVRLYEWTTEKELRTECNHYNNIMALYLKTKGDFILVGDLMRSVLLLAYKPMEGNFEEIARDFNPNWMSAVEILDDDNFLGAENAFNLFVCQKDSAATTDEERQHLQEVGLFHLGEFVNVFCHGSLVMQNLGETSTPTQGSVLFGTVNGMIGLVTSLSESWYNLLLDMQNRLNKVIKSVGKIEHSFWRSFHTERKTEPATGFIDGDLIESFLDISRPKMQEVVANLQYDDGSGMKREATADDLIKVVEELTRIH
T1 sequence (Q13422 whole entry): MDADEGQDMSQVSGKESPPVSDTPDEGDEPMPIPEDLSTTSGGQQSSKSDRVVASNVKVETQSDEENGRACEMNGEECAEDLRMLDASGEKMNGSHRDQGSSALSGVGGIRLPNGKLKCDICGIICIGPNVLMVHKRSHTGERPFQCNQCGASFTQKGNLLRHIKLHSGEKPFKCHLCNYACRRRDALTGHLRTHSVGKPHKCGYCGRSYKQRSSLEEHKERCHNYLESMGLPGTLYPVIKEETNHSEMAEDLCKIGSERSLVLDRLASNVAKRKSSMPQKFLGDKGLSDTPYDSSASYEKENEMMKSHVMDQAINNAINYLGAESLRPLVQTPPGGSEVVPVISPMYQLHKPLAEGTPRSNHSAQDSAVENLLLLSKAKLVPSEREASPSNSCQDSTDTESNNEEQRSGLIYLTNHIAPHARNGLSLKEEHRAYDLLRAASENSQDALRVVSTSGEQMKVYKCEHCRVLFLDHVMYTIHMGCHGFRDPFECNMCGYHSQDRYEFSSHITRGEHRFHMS
T1 sequence (Q96SW2 whole entry): as the sequence (Q96SW2 whole entry) above
T1 sequence (Q16531 whole entry partner): as the sequence (Q16531 whole entry partner) above

O=C1CCC(c2noc3ccc4c(NC(=O)CN5CCN(C[C@H]6CC[C@H](n7cc(NC(=O)c8coc(-c9ccnc(NCC%10CC%10)c9)n8)c(C(F)F)n7)CC6)CC5)cccc4c23)C(=O)N1 (stereo partly drawn) [Hydrochloride of Compound of Formula (I)]
Dmax (IKZF1): 72.3% | Area Under the Drug-Time Curve (0-inf) [1, 3]: 4.47 µM·h | Peak Concentration [1, 3]: 0.54 µM | Area Under the Drug-Time Curve (0-inf) ([1]; Intravenous Injection (2 mg/kg) (fasted)): 5.40 µM·h | Area Under the Drug-Time Curve (0-inf) [2, 4]: 3.20 µM·h | Peak Concentration [2, 4]: 0.41 µM | Area Under the Drug-Time Curve (0-inf) ([2]; Intravenous Injection (0.5 mg/kg)): 0.44 µM·h | Dmax (IRAK4): 108% | Dmax (IKZF3): 73.5%
